Data published in patent US20050148042A1, “Hybrid phosphoinositide phospholipids: compositions and uses” (priority 2002, published 2005).

Assays:
GST-PLC δ1-PH = molecular target: T1, GST-PLC δ1-PH (Homo sapiens, UniProt P51178); experiment: Protein-overlay binding to lipids spotted onto nitrocellulose; conditions: 200 pmol to 6 pmol spotted onto nitrocellulose
T1 construct: made in house; host or cells: E. coli
T1 sequence (P51178 21-130 limits assumed): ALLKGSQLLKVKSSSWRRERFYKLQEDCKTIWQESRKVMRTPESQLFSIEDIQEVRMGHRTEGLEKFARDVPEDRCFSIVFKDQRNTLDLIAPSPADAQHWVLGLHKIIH
From the text: In this Example, immobilized Pea-PIPns are readily and specifically recognized by lipid recognition proteins. According to this Example, six different quantities (from 200 pmol to 6 pmol) of Ptdlns(3,4)P2, Ptdlns(3,5)P2, Ptdlns(4,5)P2, Pea-PI(4,5)P2,Ptdlns(3,4,5)P3; Pea-PI(3,4,5P)3 PI and PE were spotted onto nitrocellulose, and binding of Glutathione S-Transferase (GST)-PLC δ1-PH and GST-General Receptor for Phosphoinositides (Grp1)-PH constructs was examined by a protein-overlay technique (described in Dowler, S., Kular, G., and Alessi, D. R. (2002) Sci STKE 2002, PL6) (recombinant GST tagged PLC δ1-PH and Grp1-PH domain proteins used in this Example were expressed in E. coli then purified using glutathione affinity resin (Amersham Biosciences, Piscataway, N.J.).

anti-PIP3 antibody = experiment: Antibody binding to lipids covalently coupled to Maleic-Anhydride activated 96-well plate; conditions: 50 pmol per well, absorbance at 450 nm
Protocol: The ability of lipid recognition proteins to specifically recognize and bind to Pea-PIPns was tested by coupling Pea-PIPns (as well as amino PIPs with the same headgroups as controls) to polystyrene microtiter plates. Briefly, 50 pmol per well of amino PI(4,5)P2 (PIP2), amino PI(3,4,5)P3 (PIP3), Pea-PI(4,5)P2 (Pea-PIP2), and Pea-PI(3,4,5)P3 (Pea-PIP3) lipids in 100 μL PBS were coupled via their primary amine functional groups to triplicate wells of a Maleic-Anhydride activated 96-well plate (Pierce, Rockford, Ill.). Underivatized groups were reacted with 200 μL Tris-Glycine-SDS overnight before blocking with 200 μL 0.02% Ovalbumin in TBS. […] Specific binding was subsequently visualized by incubating with anti-mouse-HRP (horseradish peroxidase) secondary antibody (Sigma, St Louis, Mo.), washing as before, then adding tetramethylbenzadine (TMB) developing reagent (Sigma) and reading the absorbance at 450 nm in a plate reader.
Binding specificity of Pea-PIPs was further tested by coupling Pea-PIP2 and Pea-PIP3 (as well as amino PIPs with the same headgroups as controls) to polystyrene microtiter plates. […] Specific binding was subsequently visualized by incubating with anti-mouse-HRP secondary antibody (Sigma, St Louis, Mo.), washing as before, then adding Tetramethylbenzadine (TMB) developing reagent (Sigma) and reading the absorbance at 450 nm in a plate reader.

GST-PLC δ1-PH domain = molecular target: T2, GST-PLC δ1-PH domain (Homo sapiens, UniProt P51178); experiment: AlphaScreen competitive binding, biotinylated Pea-PI(4,5)P2 as probe lipid
T2 construct: made in house; host or cells: E. coli
T2 sequence (P51178 21-130 limits assumed): T1 sequence (P51178 21-130 limits assumed)
Protocol: In addition, competitive binding assays were conducted in which the GST-PLC δ1-PH protein was pre-incubated for 30 min with 10 nM to 10 fM of unlabeled diC4 Ptdlns(4,5)P2, Ptdlns(3,4,5)P3, or Pea-PI(4,5)P2 prior to addition of the other reagents, using biotinylated Pea-PI(4,5)P2 as the probe lipid.
These competitive binding experiments were similar to the binding experiment described above except that non biotinylated lipids are added to each reaction to compete with biotinylated Pea-PI(4,5)P2 for binding to PLC-δ 1-PH domain. For example, eight concentrations of PI(3,4,5)P3 diC4, PI(4,5)P2 diC4, and Pea-PI(4,5)P2 were added as competitors to separate wells in addition to 0.2 pmol/well PLC-δ-1-PH domain, 0.4 pmol/well of Pea-PI(4,5)P2, streptavidin donor, and anti-GST acceptor beads; and incubated as previously described. […] This 500 times better affinity of Pea-PI(4,5)P2 for PLC d1-PH domain compared to PI(3,4,5)P3 is fundamental to the development of a robust assay where one detects the specific PIPn product of a kinase or phosphatase in the presence of excess PIPn substrate.

[1] = protein pre-incubated 30 min with 10 nM to 10 fM competitor

Row | SMILES | recognition by GST-PLC δ1-PH (GST-PLC δ1-PH) | recognition by anti-PIP3 antibody (anti-PIP3 antibody) | IC50 (GST-PLC δ1-PH domain; 0.2 pmol/well PLC-δ-1-PH domain, 0.4 pmol/well probe lipid, read-out: IC50 value as competitor) [nM] | binding to the PH domain as unlabeled competitor (GST-PLC δ1-PH domain; [1]) | better affinity for PLC d1-PH domain compared to PI(3,4,5)P3 (GST-PLC δ1-PH domain; ratio of IC50 values) [times] | selectivity for displacement of GST-PLC δ1-PH, relative to di-C4 Ptdlns(3,4,5)P3 (GST-PLC δ1-PH domain; [1])
1 | CCCCCCCCCCCCCCCC(=O)O[C@H](COP(=O)(O)OCCN)[C@@H](COP(=O)(O)O[C@@H]1[C@H](O)[C@H](O)[C@@H](OP(=O)(O)O)[C@H](OP(=O)(O)O)[C@H]1O)OC(=O)CCCCCCCCCCCCCCC [Pea-PI(4,5)P2, 1-[(2R,3R)-4-(2-Aminoethoxyphosphoryloxy)-2,3-di-O-palmitoylbutoxyphosphoryloxy]-4,5-myo-bisphosphate] | able to bind the correct protein at lower concentrations than the corresponding diC16 phosphoinositides | (but not Pea-PIP2) was recognized by the specific antibody | 140 | further increase in binding | 500 | –
2 | CCCC(=O)OCC(COP(=O)(O)OC1C(O)C(O)C(OP(=O)(O)O)C(OP(=O)(O)O)C1O)OC(=O)CCC (stereo not drawn) [di-C4 Ptdlns(4,5)P2, reference compound] | – | – | – | – | – | Over 100 fold
